From ChEMBL document CHEMBL1201862, “PubChem BioAssay data set” (2004) come the findings set out here.

Each structure is given as a SMILES string.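 All cell lines were grown in 96-well plates and treated with compound for 48 hours. GI50 is the concentration that inhibits growth by half.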 Active and inactive are the calls of the source. No stated cut-off is given here; in the data, active = GI50 up to about 1.1 µM and inactive = higher.

Among the test systems are T47D; PC-3; MCF7; UACC-62; HL-60; KM12; DU-145; SK-MEL-28; HOP-62; SNB-75; OVCAR-5; SF-268; A549; HCC 2998; OVCAR-3; A498; BT-549.
Test in all cases: NCI-60 cell line screen, 48 h

On to `CC1(C)N=c2c(ncn2CCCO)=C(C(N)=O)N1`, for which the GI50 in the assay with T47D, in the assay on PC-3, in the assay with MCF7, in the assay on UACC-62, with HL-60 and with KM12 was > 100 µM (inactive) each time. The GI50 in the assay on DU-145 is > 100 µM (inactive); in the assay with SK-MEL-28, > 100 µM (inactive); in the assay with HOP-62, > 100 µM (inactive); in the assay with SNB-75 it was 60.4 µM (inactive); in the assay with OVCAR-5, > 100 µM (inactive); with SF-268, > 100 µM (inactive). For the same compound, the GI50 with A549, in the assay on HCC 2998, with OVCAR-3 and in the assay on A498 was > 100 µM (inactive) in each case.

In the case of `COc1cc(/C=C2/SC(c3ccccc3)N(c3ccccc3Cl)C2=O)cc(OC)c1OC` (configuration not stated), the GI50 in the assay on T47D was 29.2 µM (inactive); in the assay on MCF7 it was 35.9 µM (inactive); in the assay with UACC-62, 37.9 µM (inactive); in the assay on HL-60 it was 16.5 µM (inactive); with KM12 it was 26.8 µM (inactive); in the assay on DU-145, 45 µM (inactive). Also, the GI50 in the assay with SK-MEL-28 was 30.5 µM (inactive); with BT-549, 28.2 µM (inactive); with HOP-62, 33.6 µM (inactive); in the assay on OVCAR-5, 69.5 µM (inactive); in the assay on SF-268, 41.1 µM (inactive); with A549 it was 36.3 µM (inactive). In addition, the GI50 was 88.1 µM (inactive) with HCC 2998, 27.9 µM (inactive) with OVCAR-3 and 87.3 µM (inactive) in the assay on A498.

With `COc1c(Sc2c(SCSc3cnc4ccccc4c3Sc3cnc4ccccc4c3OC)cnc3ccccc23)cnc2ccccc12`, the GI50 with T47D was > 100 µM (inactive); with PC-3, > 100 µM (inactive); in the assay on UACC-62, 39.1 µM (inactive); with HL-60 it was 1.59 µM (inactive); with KM12, > 100 µM (inactive); in the assay with DU-145, > 100 µM (inactive). In addition, the GI50 in the assay with SK-MEL-28 is 29 µM (inactive); in the assay with BT-549, 54.5 µM (inactive); in the assay with HOP-62, 42.9 µM (inactive); with SNB-75, 21.7 µM (inactive); in the assay on OVCAR-5, > 100 µM (inactive); in the assay with SF-268, > 100 µM (inactive). Also, the GI50 in the assay with A549, in the assay with HCC 2998 and in the assay with OVCAR-3 was > 100 µM (inactive) in each case.

`S=C1NCCN1C(=S)NC1CCCCC1`: the GI50 in the assay on T47D was 27.7 µM (inactive); in the assay on MCF7, 43.1 µM (inactive); in the assay on UACC-62, 43.7 µM (inactive); in the assay with HL-60 it was 40.7 µM (inactive); in the assay with KM12, 24.4 µM (inactive); in the assay with DU-145 it was 49.8 µM (inactive). Besides, the GI50 in the assay on SK-MEL-28 was 29 µM (inactive); in the assay with BT-549, 21.4 µM (inactive); with HOP-62, 37.6 µM (inactive); in the assay on SNB-75, 19 µM (inactive); in the assay on OVCAR-5, > 100 µM (inactive); in the assay on SF-268, 34.7 µM (inactive). The GI50 in the assay with A549 was 27 µM (inactive); with HCC 2998 it was 20.9 µM (inactive); in the assay with OVCAR-3 it was 31.3 µM (inactive); in the assay on A498, 18.8 µM (inactive).

Consider `CCO/C=N\c1c(C#N)c(-c2ccc(Cl)cc2)cn1-c1ccc(C)cc1`, for which the GI50 in the assay on PC-3, with MCF7, with UACC-62, with HL-60, in the assay with DU-145 and in the assay with SK-MEL-28 was > 100 µM (inactive) throughout. For the same compound, the GI50 with BT-549, with HOP-62, in the assay on SNB-75, in the assay with OVCAR-5, in the assay with SF-268 and in the assay on A549 was > 100 µM (inactive) each time. For the same compound, the GI50 in the assay with HCC 2998, with OVCAR-3 and with A498 was > 100 µM (inactive) each time.

Consider `O=[N+]([O-])c1ccc2oc(=N/c3ccccc3)/c(=N\c3ccccc3)[nH]c2c1`, for which the GI50 is > 100 µM (inactive) in the assay on T47D; 65.3 µM (inactive) in the assay on PC-3; 58.7 µM (inactive) with UACC-62; > 100 µM (inactive) in the assay with HL-60; 37.5 µM (inactive) in the assay with KM12; > 100 µM (inactive) with DU-145. Also, the GI50 with SK-MEL-28 is > 100 µM (inactive); with HOP-62, 35 µM (inactive); in the assay on SNB-75, 18 µM (inactive); in the assay on OVCAR-5, > 100 µM (inactive); with SF-268, 54.3 µM (inactive); in the assay with A549, 59.8 µM (inactive). For the same compound, the GI50 in the assay on HCC 2998 is 83.6 µM (inactive); with A498 it was 59.4 µM (inactive).

For `CN1N(c2ccccc2)C(=O)C2=NC=C(C#N)C(=N)C21C` (configuration not stated), the GI50 with PC-3, in the assay on MCF7, in the assay on UACC-62, in the assay with KM12, with DU-145 and in the assay with SK-MEL-28 was > 100 µM (inactive) in each case. Further, the GI50 in the assay on BT-549, with SNB-75, in the assay on OVCAR-5, with A549, with HCC 2998 and in the assay with OVCAR-3 was > 100 µM (inactive) in each case. Further, the GI50 in the assay with A498 was > 100 µM (inactive).

Regarding `COC(=O)c1c2c(cc3c1CC1(Cc4ccccc4C1=O)C3)CCC2` (configuration not stated), the GI50 in the assay with T47D is 52.7 µM (inactive); in the assay with PC-3, 55.7 µM (inactive); in the assay on MCF7 it was 43.8 µM (inactive); with HL-60, 16 µM (inactive); in the assay on KM12, 25.5 µM (inactive); in the assay with DU-145 it was > 100 µM (inactive). Further, the GI50 with SK-MEL-28 was 93.3 µM (inactive); in the assay with HOP-62, 42.8 µM (inactive); in the assay on SNB-75, 19.4 µM (inactive); in the assay with OVCAR-5, > 100 µM (inactive); with SF-268, 48.8 µM (inactive); in the assay with A549, 20.7 µM (inactive). Besides, the GI50 with HCC 2998 was 36.6 µM (inactive); in the assay on OVCAR-3, 19.5 µM (inactive); in the assay on A498, 22.4 µM (inactive).

In the case of `COc1ccc2[nH]c3c(c2c1)CCc1ccccc1-3`, the GI50 in the assay on T47D was > 100 µM (inactive); in the assay with PC-3, 52.8 µM (inactive); in the assay on MCF7, 79.3 µM (inactive); in the assay with UACC-62 it was > 100 µM (inactive); with KM12, 32.4 µM (inactive); with DU-145, > 100 µM (inactive). In addition, the GI50 was > 100 µM (inactive) in the assay on SK-MEL-28; > 100 µM (inactive) with BT-549; 35.2 µM (inactive) in the assay with HOP-62; 26.1 µM (inactive) in the assay on SNB-75; > 100 µM (inactive) with OVCAR-5; 38.7 µM (inactive) in the assay on SF-268. Moreover, the GI50 with A549 was > 100 µM (inactive); in the assay on HCC 2998 it was 64.3 µM (inactive); with OVCAR-3, > 100 µM (inactive).

Turning to `CNC(=O)C1(C#N)C(c2ccccc2)C(C#N)(C(=O)NC)C1c1ccccc1` (configuration not stated), the GI50 with T47D, in the assay on PC-3, in the assay with MCF7, in the assay on KM12, with SK-MEL-28 and in the assay on HOP-62 was > 100 µM (inactive) in each case. The GI50 with SNB-75, with OVCAR-5, in the assay on SF-268, with A549, in the assay on HCC 2998 and in the assay on OVCAR-3 was > 100 µM (inactive) each time. The GI50 in the assay with A498 is > 100 µM (inactive).

For the compound `CCCC(CCN)(CCN)[N+](=O)[O-]`, the GI50 in the assay with T47D, in the assay on PC-3, in the assay on UACC-62, with HL-60, with KM12 and with DU-145 was > 100 µM (inactive) each time. Moreover, the GI50 with BT-549 was > 100 µM (inactive); in the assay on SNB-75, 11.2 µM (inactive); in the assay on OVCAR-5 it was > 100 µM (inactive); in the assay on SF-268, > 100 µM (inactive); in the assay with A549, > 100 µM (inactive); in the assay with A498 it was > 100 µM (inactive).

For `CCN(CCCl)c1cc(CN(C)C)cc(NC(=O)c2cc(C(=O)Nc3cc(CN(C)C)cc(N(CC)CCCl)c3)n(C)n2)c1`, the GI50 was 0.508 µM (active) in the assay on T47D; 0.164 µM (active) in the assay with PC-3; < 0.01 µM (active) in the assay on MCF7; 0.219 µM (active) in the assay with UACC-62; 0.0115 µM (active) in the assay on HL-60; 0.236 µM (active) in the assay with KM12. The GI50 is 0.389 µM (active) in the assay with DU-145; 1.48 µM (inactive) with SK-MEL-28; 0.121 µM (active) with HOP-62; 0.271 µM (active) with SNB-75; 2.32 µM (inactive) in the assay with OVCAR-5; 0.065 µM (active) with SF-268. Moreover, the values for the GI50 with A549, in the assay on HCC 2998 and with A498 were 0.136 µM (active), 0.755 µM (active) and 2 µM (inactive), respectively.

For the compound `Oc1cc(O)cc(-c2nc3cc(F)ccc3s2)c1`, the GI50 with T47D is 17.5 µM (inactive); with PC-3 it was 25.1 µM (inactive); in the assay on MCF7 it was 20.3 µM (inactive); in the assay with UACC-62, 21.1 µM (inactive); in the assay on KM12, 20.4 µM (inactive); in the assay on DU-145, 32.8 µM (inactive). The GI50 is 48.8 µM (inactive) with SK-MEL-28; 20.2 µM (inactive) with BT-549; 20.8 µM (inactive) in the assay with OVCAR-5; 19.4 µM (inactive) in the assay with SF-268; 26.1 µM (inactive) in the assay with A549; 22.6 µM (inactive) with OVCAR-3. For the same compound, the GI50 with A498 was 18.5 µM (inactive).

Turning to `Nc1nc2cc3nc(N)c(N)nc3cc2nc1N`, the GI50 is > 100 µM (inactive) with PC-3; > 100 µM (inactive) in the assay on MCF7; > 100 µM (inactive) in the assay on UACC-62; 30.1 µM (inactive) in the assay on HL-60; > 100 µM (inactive) with KM12; > 100 µM (inactive) in the assay on DU-145. Also, the GI50 in the assay on SK-MEL-28, with BT-549, in the assay on SNB-75, in the assay on OVCAR-5, with SF-268 and in the assay on A549 was > 100 µM (inactive) each time. For the same compound, the GI50 in the assay on HCC 2998, in the assay on OVCAR-3 and in the assay with A498 was > 100 µM (inactive) in each case.
